Read-outs that look alike come from different tables or passages of the source.
Legend:
[1] = molecular target: T1, ENaC (Epithelial Sodium Channel) (Mus musculus, UniProt Q61180+Q9WU38+Q9WU39); experiment: Ussing Chamber assay: inhibition of amiloride sensitive short circuit current in M-1 cells; format: cell-based
T1 construct: Mouse kidney M-1 cells were cultivated in DMEM; endogenous in cells; host or cells: mouse kidney M-1 cells (cortical collecting duct line), dexamethasone-treated, grown on transwell filters
T1 sequence (Q61180 1-699): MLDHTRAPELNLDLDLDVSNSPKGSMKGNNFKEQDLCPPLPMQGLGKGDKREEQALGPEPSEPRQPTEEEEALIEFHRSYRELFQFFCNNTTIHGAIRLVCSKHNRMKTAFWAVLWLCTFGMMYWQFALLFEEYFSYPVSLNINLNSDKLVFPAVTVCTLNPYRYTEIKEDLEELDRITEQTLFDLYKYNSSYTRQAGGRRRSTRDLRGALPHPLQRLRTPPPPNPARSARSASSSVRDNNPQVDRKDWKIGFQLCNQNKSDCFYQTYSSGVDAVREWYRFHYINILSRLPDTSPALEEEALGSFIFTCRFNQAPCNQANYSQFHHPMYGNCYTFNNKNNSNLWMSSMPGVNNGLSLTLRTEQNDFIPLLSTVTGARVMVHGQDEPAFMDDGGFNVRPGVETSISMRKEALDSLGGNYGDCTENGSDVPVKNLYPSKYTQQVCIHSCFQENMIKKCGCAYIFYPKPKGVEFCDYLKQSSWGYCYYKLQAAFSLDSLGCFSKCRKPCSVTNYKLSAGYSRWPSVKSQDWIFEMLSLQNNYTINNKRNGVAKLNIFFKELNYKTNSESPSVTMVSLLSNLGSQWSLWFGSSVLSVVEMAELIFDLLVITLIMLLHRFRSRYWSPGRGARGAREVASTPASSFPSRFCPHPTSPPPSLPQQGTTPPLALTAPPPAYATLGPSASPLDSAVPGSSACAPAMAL
T1 sequence (Q9WU38 1-638): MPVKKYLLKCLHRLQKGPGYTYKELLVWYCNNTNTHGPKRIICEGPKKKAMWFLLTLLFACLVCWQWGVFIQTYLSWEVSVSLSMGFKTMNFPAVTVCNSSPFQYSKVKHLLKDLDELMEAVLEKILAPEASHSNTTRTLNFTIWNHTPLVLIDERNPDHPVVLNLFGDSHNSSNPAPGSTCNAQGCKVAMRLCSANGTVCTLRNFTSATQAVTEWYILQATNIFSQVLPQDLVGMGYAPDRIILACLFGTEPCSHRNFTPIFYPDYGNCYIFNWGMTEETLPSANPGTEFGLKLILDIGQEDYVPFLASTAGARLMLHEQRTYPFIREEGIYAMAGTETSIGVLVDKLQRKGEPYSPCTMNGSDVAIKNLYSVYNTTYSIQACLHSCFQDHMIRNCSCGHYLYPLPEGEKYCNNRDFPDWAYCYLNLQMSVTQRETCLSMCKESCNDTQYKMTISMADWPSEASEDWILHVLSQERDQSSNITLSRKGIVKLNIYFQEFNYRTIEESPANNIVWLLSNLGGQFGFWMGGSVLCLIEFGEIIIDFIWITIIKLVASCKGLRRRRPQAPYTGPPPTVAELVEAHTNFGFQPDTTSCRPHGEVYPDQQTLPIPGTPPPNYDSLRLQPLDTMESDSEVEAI
T1 sequence (Q9WU39 1-655): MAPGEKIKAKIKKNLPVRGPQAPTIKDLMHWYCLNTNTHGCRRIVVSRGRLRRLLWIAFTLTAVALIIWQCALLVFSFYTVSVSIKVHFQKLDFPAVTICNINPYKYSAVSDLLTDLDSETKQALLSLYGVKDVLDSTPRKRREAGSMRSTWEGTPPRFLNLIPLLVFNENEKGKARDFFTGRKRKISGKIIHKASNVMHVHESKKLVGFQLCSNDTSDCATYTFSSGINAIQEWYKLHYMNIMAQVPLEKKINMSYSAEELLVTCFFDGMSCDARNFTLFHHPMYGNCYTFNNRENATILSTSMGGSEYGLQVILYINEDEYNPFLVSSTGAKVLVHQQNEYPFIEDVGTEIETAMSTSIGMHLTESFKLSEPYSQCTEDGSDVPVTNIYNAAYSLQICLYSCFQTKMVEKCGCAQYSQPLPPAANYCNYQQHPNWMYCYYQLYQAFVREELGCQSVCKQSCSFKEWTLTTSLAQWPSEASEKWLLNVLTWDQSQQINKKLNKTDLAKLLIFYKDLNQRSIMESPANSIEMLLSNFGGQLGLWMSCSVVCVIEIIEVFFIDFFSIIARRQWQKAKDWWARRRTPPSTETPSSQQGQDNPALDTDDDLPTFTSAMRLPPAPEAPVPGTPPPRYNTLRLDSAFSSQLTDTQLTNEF
Method: Ussing Chamber: Mouse kidney M-1 cells were cultivated in DMEM containing 5% FCS and 5 μM dexamethasone for 10 to 12 days on polyester transwell filters. Filters were inserted into a teflon-coated well-plate which fit into the ussing chamber system. Prior to measurement the medium of M-1 cells was replaced with Caco-2 transport buffer (Invitrogen, Germany). During measurements, the Ussing chamber temperature was kept at 37° C. Short circuit currents (I_sc) were measured in the voltage-clamp mode with the software package Lab View for data acquisition and analysis. The transepithelial electrical resistance (TEER) was determined by the application of voltage steps of ±5 mV every 5 sec. Compounds were administered at a final concentration of 3 μM or at increasing concentrations (1-3-10 μM) to the apical solution. At the end of each experiment the amiloride sensitive I_SC was measured by adding 3 μM amiloride to the apical compartment. Results are expressed as inhibition in percent of the amiloride effect or as IC50.

[2] = Permeability in CALU-3 cells; format: in vitro ADME; conditions: human, CALU-3 monolayers, pH 7.4, 37° C., 10 μM compound; for Papp A→B at 90 min, 10 μM: apical-to-basal; for Papp B→A at 90 min, 10 μM: basal-to-apical
Method: Permeability in CALU-3 Cells:
Permeability measurements across polarized, confluent CALU-3 cell monolayers grown on permeable filter supports are used to provide information on the potential of a compound to pass the lung epithelium.
CALU-3 cells (1-2×10^5 cells/1 cm^2 area) are seeded on filter inserts (Costar transwell polycarbonate filters, 0.4 μm pore size) and cultured (for 10-12 days DMEM) until tight monolayers are formed. Compounds of interest are dissolved in appropriate solvent (DMSO, 10 mM stock solution). […] The transport solution (TL) is applied to the apical or basolateral donor side for measuring A-B or B-A permeability (3 filter replicates), respectively. The receiver side contains the same buffer as the donor side. After 30 min of accommodation, samples are collected at the start t0=0 min and at the end of the experiment tn=90 min from the donor and at 0, 30, 60, and 90 min also from the receiver chamber. Volume removed is […] by HTP-4 buffer. The compound concentration in the samples is measured by HPLC-MS/MS or scintillation counting. The permeability coefficient (Papp) and efflux ratio are calculated according to: Papp [cm/s]=(concentration receiver [nM]*volume receiver [mL]/time interval [sec])*(1/filter area)*(1/donor concentration [nM]).

[3] = Ussing chamber, mouse kidney M-1 cells, short circuit current, apical administration, 37° C., read-out: IC50

Structure (SMILES) | IC50 [1, 3] | Papp A→B at 90 min, 10 μM [2] | Papp B→A at 90 min, 10 μM [2] | IC50 [1]
CC[n+]1c(CNC(=O)c2nc(Cl)c(N)nc2N)n(C[C@@H]2CCCO2)c2cc(OCC(=O)N3CC[S+]([O-])CC3)ccc21.O=C([O-])C(F)(F)F [Example 1.01] | 1 nM | 0.5 ×10⁻⁶ cm/s | 0.08 ×10⁻⁶ cm/s | 
CC[n+]1c(CNC(=O)c2nc(Cl)c(N)nc2N)n(CCOCCN2CCCCC2=O)c2cc(OCP(C)(C)=O)ccc21 [Example 1.16] | 87 nM |  |  | 
CCNC(=O)N1CCC(n2c(CNC(=O)c3nc(Cl)c(N)nc3N)[n+](CC)c3ccc(OCC(=O)NC4CCN(CC)CC4)cc32)CC1 [Example 4.02] | 2 nM |  |  | 
CC[n+]1c(CNC(=O)c2nc(Cl)c(N)nc2N)n(C[C@@H]2CCCO2)c2cc(OCC(=O)NCc3ccccn3)ccc21.O=C([O-])C(F)(F)F [Example 2.01] | 1 nM | 0.03 ×10⁻⁶ cm/s | 0.05 ×10⁻⁶ cm/s | 
CCOP(=O)([O-])CCCCn1c(CNC(=O)c2nc(Br)c(N)nc2N)[n+](CC)c2ccc(O)cc21 [Example 6.01] |  |  |  | 25 nM
CCn1c(CNC(=O)c2nc(Cl)c(N)nc2N)[n+](CC2CCOCC2)c2ccc(OCC(=O)N(Cc3ccccc3)Cc3nc(C)ccc3[O-])cc21 [Example 1.05] | 5 nM |  |  | 
CCNC(=O)N1CCC(n2c(CNC(=O)c3nc(Cl)c(N)nc3N)[n+](CC)c3ccc(OCC(=O)NC4CCNCC4)cc32)CC1 [Example 3.02] | 3 nM |  |  | 
CCn1c(CNC(=O)c2nc(Cl)c(N)nc2N)[n+](Cc2cccc(C(=O)N3CC[S+]([O-])CC3)c2)c2ccc(OCCO)cc21.O=C([O-])C(F)(F)F [Example 1.08] | 16 nM | 0.1 ×10⁻⁶ cm/s | 0.09 ×10⁻⁶ cm/s | 
CC[n+]1c(CNC(=O)c2nc(Cl)c(N)nc2N)n(CCCCP(=O)([O-])O)c2cc(O)ccc21 [Example 7.01] | 63 nM |  |  | 
CCCCCCN1CCC(NC(=O)COc2ccc3c(c2)n(C2CCN(C(=O)NCC)CC2)c(CNC(=O)c2nc(Cl)c(N)nc2N)[n+]3CC)CC1 [Example 4.01] | 4 nM |  |  | 
CC[n+]1c(CNC(=O)c2nc(Cl)c(N)nc2N)n(C[C@@H]2CCCO2)c2cc(OCC(=O)N3CCN(C(=O)OCc4ccccc4)CC3)ccc21 [Example 1.14] | 7 nM |  |  | 
Nc1nc(N)c(C(=O)NCc2n(C[C@@H]3CCCO3)c3cc(OCCO)ccc3[n+]2CCOCCO)nc1Cl [Example 1.09] | 3 nM |  |  | 
CC[n+]1c(CNC(=O)c2nc(Cl)c(N)nc2N)n(C[C@@H]2CCCO2)c2cc(OCC(=O)N3C[C@@H](O)[C@H](O)C3)ccc21 [Example 1.15] | 2 nM |  |  | 
CC[n+]1c(CNC(=O)c2nc(Cl)c(N)nc2N)n(CCOCCn2cc(C(=O)N(C)C)ccc2=O)c2cc(OCCO)ccc21 [Example 1.11] | 26 nM |  |  | 
C[n+]1c(CNC(=O)c2nc(Cl)c(N)nc2N)n(C[C@@H]2CCCO2)c2cc(OCCO)ccc21.O=C([O-])C(F)(F)F [Example 1.04] | 3 nM | 0.3 ×10⁻⁶ cm/s | 0.2 ×10⁻⁶ cm/s | 
CC[n+]1c(CNC(=O)c2nc(Cl)c(N)nc2N)n(CCOCCn2ccccc2=O)c2cc(OCP(C)(C)=O)ccc21.O=C([O-])C(F)(F)F [Example 1.03] | 49 nM | 0.2 ×10⁻⁶ cm/s | 0.07 ×10⁻⁶ cm/s | 
CCNC(=O)N1CCC(n2c(CNC(=O)c3nc(Cl)c(N)nc3N)[n+](CC)c3ccc(OCC(=O)O)cc32)CC1 [Example 5.01] | 18 nM |  |  | 
CCn1c(CNC(=O)c2nc(Cl)c(N)nc2N)[n+](CC2CCOCC2)c2ccc(OCC(=O)N(Cc3nc(C)ccc3[O-])C[C@H](C)O)cc21 [Example 1.12] | 2 nM |  |  | 
CC[n+]1c(CNC(=O)c2nc(Cl)c(N)nc2N)n(CC2CCOCC2)c2cc(OCCC[n+]3cc([O-])cc(OC)c3)c(Cl)cc21.O=C([O-])C(F)(F)F [Example 1.13] | 2 nM | 0.4 ×10⁻⁶ cm/s | 0.1 ×10⁻⁶ cm/s | 
CCn1c(CNC(=O)c2nc(Cl)c(N)nc2N)[n+](Cc2cccnc2)c2ccc(OCC(=O)N(C)C)cc21.O=C([O-])C(F)(F)F [Example 1.02] | 6 nM | 0.4 ×10⁻⁶ cm/s | 0.2 ×10⁻⁶ cm/s | 
CCn1c(CNC(=O)c2nc(Cl)c(N)nc2N)[n+](CC2CCOCC2)c2ccc(OCC(=O)NCc3nc(C)ccc3[O-])cc21 [Example 1.07] | 2 nM |  |  | 
CCN(Cc1ncccc1[O-])C(=O)COc1ccc2c(c1)n(CC)c(CNC(=O)c1nc(Cl)c(N)nc1N)[n+]2CC1CCOCC1 [Example 1.17] | 1 nM |  |  | 
CCn1c(CNC(=O)c2nc(Cl)c(N)nc2N)[n+](CC2CCOCC2)c2ccc(OCC(=O)N(C)Cc3nc(C)ccc3[O-])cc21 [Example 1.06] | 1 nM |  |  | 
